# Where a name gives a salt, the structure may show the parent alone.
# Target: Factor D (Homo sapiens (Human), UniProt P00746)
# Assay: biochemical
# Type: biochemical
# Details: read-out: IC50
# Chain of Factor D (P00746 26-253): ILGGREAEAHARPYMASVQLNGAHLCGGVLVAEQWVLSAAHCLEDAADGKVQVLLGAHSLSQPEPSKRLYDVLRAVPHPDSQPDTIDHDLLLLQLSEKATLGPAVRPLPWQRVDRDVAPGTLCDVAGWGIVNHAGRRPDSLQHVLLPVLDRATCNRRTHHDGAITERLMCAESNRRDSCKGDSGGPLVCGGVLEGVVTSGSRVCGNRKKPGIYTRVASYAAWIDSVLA
row,Compound,IC50
1,"C=CCOc1ccc2c(NC(=O)N3C4CC4C[C@H]3C(=O)NCc3cccc(Cl)c3F)cn(C(N)=O)c2c1 (stereo partly drawn) [Example 311, (1R,3S,5R)-2-Aza-bicyclo[3.1.0]hexane-2,3-dicarboxylic acid 2-[(6-allyloxy-1-carbamoyl-1H-indol-3-yl)-amide] 3-(3-chloro-2-fluoro-benzylamide)]",70 nM
2,Cc1ccc2c(NC(=O)N3CCC[C@H]3C(=O)Nc3cccc(OC(F)(F)F)c3)cn(C(N)=O)c2c1 [Example 269],1600 nM
3,"NC(=O)n1cc(NC(=O)N2CCS[C@H]2C(=O)Nc2cncc(Br)c2)c2ccccc21 [Example 321, (S)-Thiazolidine-2,3-dicarboxylic acid 3-[(1-carbamoyl-1H-indol-3-yl)-amide] 2-[(5-bromo-pyridin-3-yl)-amide]]",85 nM
4,"CNC(=O)n1cc(NC(=O)N2[C@H](C(=O)NCc3cccc(Cl)c3F)C[C@@]3(COC)C[C@@H]23)c2ccccc21 [Example 284, (1R,3S,5S)-5-Methoxymethyl-2-aza-bicyclo[3.1.0]hexane-2,3-dicarboxylic acid 3-(3-chloro-2-fluoro-benzylamide) 2-[(1-methylcarbamoyl-1H-indol-3-yl)-amide]]",286 nM
5,"COc1cccc2c(C(N)=O)cn(CC(=O)N3C[C@H](F)C[C@H]3C(=O)NCc3cccc(Cl)c3F)c12 [Example 477, 1-{2-[(2S,4R)-2-(3-Chloro-2-fluoro-benzylcarbamoyl)-4-fluoro-pyrrolidin-1-yl]-2-oxo-ethyl}-7-methoxy-1H-indole-3-carboxylic acid amide]",628 nM
6,"NC(=O)n1cc(NC(=O)N2C[C@@H](N)C[C@H]2C(=O)NC(CCO)c2cccc(Cl)c2)c2ccccc21 (stereo partly drawn) [Example 71, (2S,4S)-4-Amino-pyrrolidine-1,2-dicarboxylic acid 1-[(1-carbamoyl-1H-indol-3-yl)-amide] 2-{[1-(3-chloro-phenyl)-3-hydroxy-propyl]-amide}]",2900 nM
7,"NC(=O)n1cc(NC(=O)N2C3CC3C[C@H]2C(=O)NCc2cccc(Cl)c2)c2ccccc21 (stereo partly drawn) [Example 183, (1R,3S,5R)-2-Aza-bicyclo[3.1.0]hexane-2,3-dicarboxylic acid 2-[(1-carbamoyl-1H-indol-3-yl)-amide] 3-(3-chloro-benzylamide)]",20 nM
8,"COCCNC(=O)c1cc(Cl)c(F)c(CNC(=O)[C@@H]2C[C@@H](F)CN2C(=O)Nc2cn(C(N)=O)c3ccccc23)c1 [Example 438, (2S,4R)-4-Fluoro-pyrrolidine-1,2-dicarboxylic acid 1-[(1-carbamoyl-1H-indol-3-yl)-amide]2-[3-chloro-2-fluoro-5-(2-methoxy-ethylcarbamoyl)-benzylamide]]",924 nM
9,"CC(=O)c1cn(CC(=O)N2C[C@H](F)C[C@H]2C(=O)NCc2cccc(Cl)c2F)c2cc(CO)ccc12 [Example 604, (2S,4R)-1-[2-(3-Acetyl-6-hydroxymethyl-indol-1-yl)-acetyl]-4-fluoro-pyrrolidine-2-carboxylic acid 3-chloro-2-fluoro-benzylamide]",37 nM
10,"NC(=O)n1cc(NC(=O)N2C[C@@H](N)C[C@H]2C(=O)NCc2cccc(Cl)c2F)c2ccccc21 [Example 26, (2S,4S)-4-Amino-pyrrolidine-1,2-dicarboxylic acid 1-[(1-carbamoyl-1H-indol-3-yl)-amide]2-(3-chloro-2-fluoro-benzylamide)]",25 nM
11,"Cc1cc2c(C(N)=O)nn(CC(=O)N3[C@@H]4C[C@@H]4C[C@H]3C(=O)Nc3cccc(Br)n3)c2c(C)n1 [Example 743, 1-{2-[(1R,3S,5R)-3-(6-Bromo-pyridin-2-ylcarbamoyl)-2-aza-bicyclo[3.1.0]hex-2-yl]-2-oxo-ethyl}-5,7-dimethyl-1H-pyrazolo[3,4-c]pyridine-3-carboxylic acid amide]",5 nM
12,"O=C(CO)c1cn(CC(=O)N2C[C@H](F)C[C@H]2C(=O)N[C@H](CF)c2cccc(Br)c2)c2ccccc12 [Example 551, (2S,4R)-4-Fluoro-1-{2-[3-(2-hydroxy-acetyl)-indol-1-yl]-acetyl}-pyrrolidine-2-carboxylic acid [(S)-1-(3-bromo-phenyl)-2-fluoro-ethyl]-amide]",899 nM
13,"NC(=O)n1cc(NC(=O)N2C[C@@H](N)C[C@H]2C(=O)NCc2ccc3ccccc3c2)c2ccccc21 [Example 63, (2S,4S)-4-Amino-pyrrolidine-1,2-dicarboxylic acid 1-[(1-carbamoyl-1H-indol-3-yl)-amide] 2-[(naphthalen-2-ylmethyl)-amide]]",11400 nM
14,"Cc1ccc(CNC(=O)[C@@H]2C[C@H](N)CN2C(=O)Nc2cn(C(N)=O)c3ccccc23)cc1 [Example 43, (2S,4S)-4-Amino-pyrrolidine-1,2-dicarboxylic acid 1-[(1-carbamoyl-1H-indol-3-yl)-amide] 2-(4-methyl-benzylamide)]",7750 nM
15,"NC(=O)c1cn(CC(=O)N2CCC[C@H]2C(=O)Nc2cccc(OC(F)(F)F)c2)c2ccccc12 [Example 118, 1-{2-oxo-2-[(S)-2-(3-trifluoromethoxy-phenylcarbamoyl)-pyrrolidin-1-yl]-ethyl}-1H-indole-3-carboxylic acid amide]",17500 nM
16,NC(=O)c1nn(CC(=O)N2C[C@H](F)C[C@H]2C(=O)Nc2cccc(OC(F)(F)F)c2F)c2ccccc12 [Example 708],54 nM
17,"NC(=O)n1cc(NC(=O)N2[C@@H]3C[C@@H]3C[C@H]2C(=O)NCc2ccccc2F)c2cc(OCC(=O)O)ccc21 [Example 391, (1-Carbamoyl-3-{[(1R,3S,5R)-3-(2-fluoro-benzylcarbamoyl)-2-aza-bicyclo[3.1.0]hexane-2-carbonyl]-amino}-1H-indol-5-yloxy)-acetic acid]",30 nM
18,"NC(=O)n1cc(NC(=O)N2CC[C@@H](O)[C@H]2C(=O)NCc2cccc(Cl)c2F)c2ccccc21 [Example 213, (2S,3R)-3-Hydroxy-pyrrolidine-1,2-dicarboxylic acid 1-[(1-carbamoyl-1H-indol-3-yl)-amide] 2-(3-chloro-2-fluoro-benzylamide)]",12 nM
19,"CC(=O)c1cn(CC(=O)N2[C@@H]3C[C@@H]3C[C@H]2C(=O)NCc2cccc(Cl)c2F)c2cc(-c3nnn[nH]3)ccc12 [Example 618, (1R,3S,5R)-2-{2-[3-Acetyl-6-(1H-tetrazol-5-yl)-indol-1-yl]-acetyl}-2-aza-bicyclo[3.1.0]hexane-3-carboxylic acid 3-chloro-2-fluoro-benzylamide]",39 nM
20,"NC[C@@]1(F)C[C@@H](C(=O)N[C@H](CF)c2cccc(Br)c2)N(C(=O)Nc2cn(C(N)=O)c3ccccc23)C1 [Example 413, (2S,4S)-4-Aminomethyl-4-fluoro-pyrrolidine-1,2-dicarboxylic acid 2-{[(S)-1-(3-bromo-phenyl)-2-fluoro-ethyl]-amide}1-[(1-carbamoyl-1H-indol-3-yl)-amide]]",101 nM
21,"CC(=O)c1cn(CC(=O)N2[C@@H]3C[C@@H]3C[C@H]2C(=O)NCc2cccc(Cl)c2F)c2ccc(OCc3ncccn3)cc12 [Example 666, (1R,3S,5R)-2-{2-[3-Acetyl-5-(pyrimidin-2-ylmethoxy)-indol-1-yl]-acetyl}-2-aza-bicyclo [3.1.0]hexane-3-carboxylic acid 3-chloro-2-fluoro-benzylamide]",6 nM
22,"CCO[C@H]1[C@@H](C(=O)NCc2cccc(Cl)c2F)N(C(=O)Cn2cc(C(C)=O)c3cc(C)ncc32)C[C@@H]1F [Example 667, (2S,3S,4S)-1-[2-(3-Acetyl-5-methyl-pyrrolo[2,3-c]pyridin-1-yl)-acetyl]-3-ethoxy-4-fluoro-pyrrolidine-2-carboxylic acid 3-chloro-2-fluoro-benzylamide formate]",16 nM
23,"NC(=O)n1cc(NC(=O)N2CCC3C[C@@]32C(=O)Nc2cccc(OC(F)(F)F)c2)c2ccccc21 (stereo partly drawn) [Example 307, (1S,5R)-2-Aza-bicyclo[3.1.0]hexane-1,2-dicarboxylic acid 2-[(1-carbamoyl-1H-indol-3-yl)-amide] 1-[(3-trifluoromethoxy-phenyl)-amide]]",13300 nM
24,"CO[C@H]1[C@@H](C(=O)Nc2cccc(Br)c2F)N(C(=O)Cn2nc(C(N)=O)c3ccccc32)C[C@@H]1F [Example 755, 1-{2-[(2S,3S,4S)-2-(3-Bromo-2-fluoro-phenylcarbamoyl)-4-fluoro-3-methoxy-pyrrolidin-1-yl]-2-oxo-ethyl}-1H-indazole-3-carboxylic acid amide]",17 nM
25,"NC(=O)n1cc(CC(=O)N2CCS[C@H]2C(=O)NCc2cccc(Cl)c2F)c2cc(OCCO)ccc21 [Example 462, 3-{2-[(S)-2-(3-Chloro-2-fluoro-benzylcarbamoyl)-thiazolidin-3-yl]-2-oxo-ethyl}-5-(2-hydroxy-ethoxy)-indole-1-carboxylic acid amide]",75 nM
26,"NC(=O)n1cc(NC(=O)N2C[C@@H](CO)C[C@H]2C(=O)NCc2cccc(Br)c2F)c2ccccc21 [Example 355, (2S,4S)-4-Hydroxymethyl-pyrrolidine-1,2-dicarboxylic acid 2-(3-bromo-2-fluoro-benzylamide) 1-[(1-carbamoyl-1H-indol-3-yl)-amide]]",104 nM
27,"Cn1nc(-c2ccccc2)cc1NC(=O)[C@@H]1CCCN1C(=O)Nc1cn(C(N)=O)c2ccccc12 [Example 199, (S)-Pyrrolidine-1,2-dicarboxylic acid 1-[(1-carbamoyl-1H-indol-3-yl)-amide] 2-[(2-methyl-5-phenyl-2H-pyrazol-3-yl)-amide]]",8650 nM
28,"NC(=O)n1cc(NC(=O)N2[C@@H]3C[C@@H]3C[C@H]2C(=O)Nc2cccc(OC(F)(F)F)c2)c2cc(OCCO)ccc21 [Example 381, (1R,3S,5R)-2-Aza-bicyclo[3.1.0]hexane-2,3-dicarboxylic acid 2-{[1-carbamoyl-5-(2-hydroxy-ethoxy)-1H-indol-3-yl]-amide}3-[(3-trifluoromethoxy-phenyl)-amide]]",57 nM
29,"CCc1cccc(NC(=O)[C@@H]2C[C@@H](F)CN2C(=O)Nc2cn(C(N)=O)c3ccccc23)n1 [Example 163, (2S,4R)-4-Fluoro-pyrrolidine-1,2-dicarboxylic acid 1-[(1-carbamoyl-1H-indol-3-yl)-amide] 2-[(6-ethyl-pyridin-2-yl)-amide]]",100 nM
30,"NC(=O)n1cc(NC(=O)N2C[C@@H](C(F)(F)F)C[C@H]2C(=O)NCc2cccc(Cl)c2F)c2ccccc21 [Example 147, (2S,4S)-4-Trifluoromethyl-pyrrolidine-1,2-dicarboxylic acid 1-[(1-carbamoyl-1H-indol-3-yl)-amide] 2-(3-chloro-2-fluoro-benzylamide)]",120 nM
